Values of other authors as cited in US20050208598A1 (priority 2004, published 2005).

Target: avidin (Gallus gallus, UniProt P02701)
Details: read-out: Kd of binding to avidin

Chain of avidin (P02701 25-152, species assumed): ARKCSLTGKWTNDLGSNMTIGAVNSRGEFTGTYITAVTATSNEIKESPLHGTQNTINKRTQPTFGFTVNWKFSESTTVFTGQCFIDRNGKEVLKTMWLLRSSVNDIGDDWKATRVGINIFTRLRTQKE

| SMILES | Kd |
| --- | --- |
| O=C(O)c1ccccc1N=Nc1ccc(O)cc1 [HABA, 2-(4-hydroxyphenylazo)benzoic acid] | ~6 µM |
| C[C@@H]1NC(=O)N[C@@H]1CCCCCC(=O)O [desthiobiotin] | ~0.1 µM |
